Data as given in ChEMBL document CHEMBL5608186, “Design, synthesis and structure-activity relationships of novel non-ketolides: 9-Oxime clarithromycin featured with seven-to thirteen-atom-length diamine linkers at 3-OH” (Eur J Med Chem, 2024).
Values after ≈ are worked out from the molar mass of the structure shown.

How the values were obtained:
Assay type in all cases: functional
[1] = test system: Streptococcus pyogenes; test: Antibacterial activity against Streptococcus pyogenes 01-968 harboring i-ermB gene incubated for 16 to 20 hrs by CLSI based broth microdilution method; conditions: time 16-20 hrs
[2] = test system: Haemophilus influenzae; test: Bactericidal activity against Haemophilus influenzae ATCC 49247 incubated for 16 to 20 hrs by CLSI based broth microdilution method; conditions: time 16-20 hrs
[3] = test system: Staphylococcus aureus; test: Bactericidal activity against methicillin-resistant Staphylococcus aureus PU 32 harboring i-ermA gene incubated for 16 to 20 hrs by CLSI based broth microdilution method; conditions: time 16-20 hrs
[4] = test system: Streptococcus pneumoniae; test: Bactericidal activity against Streptococcus pneumoniae ATCC 49619 incubated for 16 to 20 hrs by CLSI based broth microdilution method; conditions: time 16-20 hrs
[5] = test system: Streptococcus pneumoniae; test: Antibacterial activity against Streptococcus pneumoniae 07P390 harboring c-erm gene incubated for 16 to 20 hrs by CLSI based broth microdilution method; conditions: time 16-20 hrs
[6] = test system: Streptococcus pneumoniae; test: Selectivity ratio of MBC for Streptococcus pneumoniae PU 09 harboring mef gene to MIC for Streptococcus pneumoniae PU 09 harboring mef gene
[7] = test system: Staphylococcus aureus; test: Bactericidal activity against methicillin-resistant Staphylococcus aureus PU 20 harboring c-ermA gene incubated for 16 to 20 hrs by CLSI based broth microdilution method; conditions: time 16-20 hrs
[8] = test system: Haemophilus influenzae; test: Antibacterial activity against Haemophilus influenzae ATCC 49247 incubated for 16 to 20 hrs by CLSI based broth microdilution method; conditions: time 16-20 hrs
[9] = test system: Streptococcus pneumoniae; test: Bactericidal activity against Streptococcus pneumoniae 07P390 harboring c-erm gene incubated for 16 to 20 hrs by CLSI based broth microdilution method; conditions: time 16-20 hrs
[10] = test system: Staphylococcus aureus; test: Antibacterial activity against methicillin-resistant Staphylococcus aureus PU 32 harboring i-ermA gene incubated for 16 to 20 hrs by CLSI based broth microdilution method; conditions: time 16-20 hrs
[11] = test system: Streptococcus pyogenes; test: Selectivity ratio of MBC for Streptococcus pyogenes 01-968 harboring i-ermB gene to MIC for Streptococcus pyogenes 01-968 harboring i-ermB gene
[12] = test system: Haemophilus influenzae; test: Selectivity ratio of MBC for Haemophilus influenzae ATCC 49247 to MIC for Haemophilus influenzae ATCC 49247
[13] = test system: Staphylococcus aureus; test: Antibacterial activity against methicillin-resistant Staphylococcus aureus PU 20 harboring c-ermA gene incubated for 16 to 20 hrs by CLSI based broth microdilution method; conditions: time 16-20 hrs
[14] = test system: Streptococcus pneumoniae; test: Selectivity ratio of MBC for Streptococcus pneumoniae 07P390 harboring c-erm gene to MIC for Streptococcus pneumoniae 07P390 harboring c-erm gene
[15] = test system: Streptococcus pneumoniae; test: Antibacterial activity against Streptococcus pneumoniae PU 09 harboring mef gene incubated for 16 to 20 hrs by CLSI based broth microdilution method; conditions: time 16-20 hrs
[16] = test system: Streptococcus pneumoniae; test: Antibacterial activity against Streptococcus pneumoniae ATCC 49619 incubated for 16 to 20 hrs by CLSI based broth microdilution method; conditions: time 16-20 hrs
[17] = test system: Streptococcus pyogenes; test: Bactericidal activity against Streptococcus pyogenes 01-968 harboring i-ermB gene incubated for 16 to 20 hrs by CLSI based broth microdilution method; conditions: time 16-20 hrs
[18] = test system: Streptococcus pneumoniae; test: Selectivity ratio of MBC for Streptococcus pneumoniae ATCC 49619 to MIC for Streptococcus pneumoniae ATCC 49619
[19] = test system: Streptococcus pneumoniae; test: Bactericidal activity against Streptococcus pneumoniae PU 09 harboring mef gene incubated for 16 to 20 hrs by CLSI based broth microdilution method; conditions: time 16-20 hrs
[20] = test system: Staphylococcus aureus; test: Selectivity ratio of MBC for methicillin-resistant Staphylococcus aureus PU 32 harboring i-ermA gene to MIC for methicillin-resistant Staphylococcus aureus PU 32 harboring i-ermA gene

| Structure (SMILES) | MIC [1] [µg/mL] | MBC [2] [µg/mL] | MBC [3] [µg/mL] | MBC [4] [µg/mL] | MIC [5] [µg/mL] | Selectivity ratio [6] | MBC [7] [µg/mL] | MIC [8] [µg/mL] | MBC [9] [µg/mL] | MIC [10] [µg/mL] | Selectivity ratio [11] | Selectivity ratio [12] | MIC [13] [µg/mL] | Selectivity ratio [14] | MIC [15] [µg/mL] | MIC [16] [µg/mL] | MBC [17] [µg/mL] | Selectivity ratio [18] | MBC [19] [µg/mL] | Selectivity ratio [20] |
| --- | --- | --- | --- | --- | --- | --- | --- | --- | --- | --- | --- | --- | --- | --- | --- | --- | --- | --- | --- | --- |
| CC[C@H]1OC(=O)[C@H](C)[C@@H](OC(=O)CCNCCCCNc2cc3c(cc2F)c(=O)c(C(=O)O)cn3C2CC2)[C@H](C)[C@@H](O[C@@H]2O[C@H](C)C[C@H](N(C)C)[C@H]2O)[C@](C)(OC)C[C@@H](C)/C(=N\OCC#Cc2ccc3c(c2)c(=O)c(C(N)=O)cn3CC)[C@H](C)[C@H]2OC(=O)O[C@@]21C | 1 (≈ 0.787 µM) | 8 (≈ 6.3 µM) | > 256 | 0.12 (≈ 0.0945 µM) | 2 (≈ 1.57 µM) | 1 | > 256 | 8 (≈ 6.3 µM) | 8 (≈ 6.3 µM) | 128 (≈ 101 µM) | >8 | 1 | > 256 | 4 | 0.25 (≈ 0.197 µM) | 0.12 (≈ 0.0945 µM) | > 8 | 1 | 0.25 (≈ 0.197 µM) | – |
| CC[C@H]1OC(=O)[C@H](C)[C@@H](OC(=O)CCNCCNc2cc3c(=O)c(C(=O)O)cn(C4CC4)c3cc2Cl)[C@H](C)[C@@H](O[C@@H]2O[C@H](C)C[C@H](N(C)C)[C@H]2O)[C@](C)(OC)C[C@@H](C)/C(=N\OC)[C@H](C)[C@H]2OC(=O)O[C@@]21C | – | – | – | – | > 32 | 1 | – | – | – | – | 2 | 1 | > 256 | – | – | – | – | 2 | – | – |
| C#CCO/N=C1\[C@H](C)C[C@@](C)(OC)[C@H](O[C@@H]2O[C@H](C)C[C@H](N(C)C)[C@H]2O)[C@@H](C)[C@H](OC(=O)CCN2CCN(c3cc4c(cc3F)c(=O)c(C(=O)O)cn4C3CC3)CC2)[C@@H](C)C(=O)O[C@H](CC)[C@@]2(C)OC(=O)O[C@@H]2[C@H]1C | 4 (≈ 3.79 µM) | 1 (≈ 0.949 µM) | > 256 | 0.5 (≈ 0.474 µM) | 32 (≈ 30.4 µM) | 2 | > 256 | 1 (≈ 0.949 µM) | > 32 | 64 (≈ 60.7 µM) | 2 | 1 | 256 (≈ 243 µM) | – | 1 (≈ 0.949 µM) | 0.5 (≈ 0.474 µM) | 8 (≈ 7.59 µM) | 1 | 2 (≈ 1.9 µM) | >4 |
| CC[C@H]1OC(=O)[C@H](C)[C@@H](OC(=O)CCNCCCc2ccc3c(c2)c(=O)c(C(=O)O)cn3C2CC2)[C@H](C)[C@@H](O[C@@H]2O[C@H](C)C[C@H](N(C)C)[C@H]2O)[C@](C)(OC)C[C@@H](C)/C(=N\OC)[C@H](C)[C@H]2OC(=O)O[C@@]21C | – | – | – | – | 16 (≈ 16.2 µM) | 1 | – | – | > 32 | – | 1 | 2 | – | – | – | – | – | 2 | – | – |
| CC[C@H]1OC(=O)[C@H](C)C(=O)[C@H](C)[C@@H](O[C@@H]2O[C@H](C)C[C@H](N(C)C)[C@H]2O)[C@](C)(OC)C[C@@H](C)C(=O)[C@H](C)[C@H]2N(CCCCn3cnc(-c4cccnc4)c3)C(=O)O[C@]12C [TELITHROMYCIN] | 0.031 (≈ 0.0382 µM) | – | 1 (≈ 1.23 µM) | 0.125 (≈ 0.154 µM) | 0.125 (≈ 0.154 µM) | 8 | – | – | 1 (≈ 1.23 µM) | – | 4 | – | > 256 | 8 | 0.5 (≈ 0.616 µM) | 0.031 (≈ 0.0382 µM) | 0.125 (≈ 0.154 µM) | 4 | 4 (≈ 4.93 µM) | 4 |
| CC[C@H]1OC(=O)[C@H](C)[C@@H](OC(=O)CCNCCCCCCCCNc2cc3c(=O)c(C(=O)O)cn(C4CC4)c3cc2Cl)[C@H](C)[C@@H](O[C@@H]2O[C@H](C)C[C@H](N(C)C)[C@H]2O)[C@](C)(OC)C[C@@H](C)/C(=N\OC)[C@H](C)[C@H]2OC(=O)O[C@@]21C | 4 (≈ 3.62 µM) | – | > 256 | 2 (≈ 1.81 µM) | > 32 | 1 | > 256 | > 256 | – | 128 (≈ 116 µM) | >8 | – | 128 (≈ 116 µM) | – | 16 (≈ 14.5 µM) | 2 (≈ 1.81 µM) | > 32 | 1 | 16 (≈ 14.5 µM) | – |
| CC[C@H]1OC(=O)[C@H](C)[C@@H](OC(=O)CCN2CCN(c3cc4c(cc3F)c(=O)c(C(=O)O)cn4C3CC3)CC2)[C@H](C)[C@@H](O[C@@H]2O[C@H](C)C[C@H](N(C)C)[C@H]2O)[C@](C)(OC)C[C@@H](C)/C(=N\OCC#Cc2cncc(C(N)=O)c2)[C@H](C)[C@H]2OC(=O)O[C@@]21C | 0.5 (≈ 0.426 µM) | 8 (≈ 6.81 µM) | > 64 | 0.5 (≈ 0.426 µM) | 4 (≈ 3.41 µM) | 2 | – | 8 (≈ 6.81 µM) | > 32 | 8 (≈ 6.81 µM) | 2 | 1 | > 256 | >8 | 0.5 (≈ 0.426 µM) | 0.25 (≈ 0.213 µM) | 1 (≈ 0.852 µM) | 2 | 1 (≈ 0.852 µM) | >8 |
| CC[C@H]1OC(=O)[C@H](C)[C@@H](O[C@H]2C[C@@](C)(OC)[C@@H](O)[C@H](C)O2)[C@H](C)[C@@H](O[C@@H]2O[C@H](C)C[C@H](N(C)C)[C@H]2O)[C@](C)(OC)C[C@@H](C)C(=O)[C@H](C)[C@@H](O)[C@]1(C)O [CLARITHROMYCIN] | 8 (≈ 10.7 µM) | – | – | 0.25 (≈ 0.334 µM) | > 32 | 8 | – | – | – | – | >8 | 2 | > 256 | – | – | 0.062 (≈ 0.0829 µM) | > 64 | 4 | 32 (≈ 42.8 µM) | >8 |
| CC[C@H]1OC(=O)[C@H](C)[C@@H](OC(=O)NCCCc2ccc3c(c2)c(=O)c(C(=O)O)cn3C2CC2)[C@H](C)[C@@H](O[C@@H]2O[C@H](C)C[C@H](N(C)C)[C@H]2O)[C@](C)(OC)C[C@@H](C)/C(=N\OC)[C@H](C)[C@H]2OC(=O)O[C@@]21C | – | – | – | – | > 32 | 4 | – | – | – | – | 2 | 1 | – | – | – | – | – | 2 | – | >8 |
| CC[C@H]1OC(=O)[C@H](C)[C@@H](OC(=O)CCN2CCN(c3cc4c(cc3F)c(=O)c(C(=O)O)cn4C3CC3)CC2)[C@H](C)[C@@H](O[C@@H]2O[C@H](C)C[C@H](N(C)C)[C@H]2O)[C@](C)(OC)C[C@@H](C)/C(=N\OCC#Cc2cncc3ccccc23)[C@H](C)[C@H]2OC(=O)O[C@@]21C | 32 (≈ 27.1 µM) | 1 (≈ 0.846 µM) | – | 4 (≈ 3.39 µM) | > 32 | 2 | – | 1 (≈ 0.846 µM) | – | > 256 | 2 | 1 | > 256 | – | 16 (≈ 13.5 µM) | 4 (≈ 3.39 µM) | 64 (≈ 54.2 µM) | 1 | 32 (≈ 27.1 µM) | – |
| CC[C@H]1OC(=O)[C@H](C)[C@@H](OC(=O)CCN2CCN(c3cc4c(cc3F)c(=O)c(C(N)=O)cn4C3CC3)CC2)[C@H](C)[C@@H](O[C@@H]2O[C@H](C)C[C@H](N(C)C)[C@H]2O)[C@](C)(OC)C[C@@H](C)/C(=N\OCC#Cc2cncc(C(=O)NC)c2)[C@H](C)[C@H]2OC(=O)O[C@@]21C | 32 (≈ 27 µM) | > 256 | > 256 | 1 (≈ 0.842 µM) | 256 (≈ 216 µM) | 4 | > 256 | > 256 | > 256 | 256 (≈ 216 µM) | >8 | – | > 256 | – | 1 (≈ 0.842 µM) | 0.25 (≈ 0.211 µM) | > 256 | 4 | 4 (≈ 3.37 µM) | – |
| CC[C@H]1OC(=O)[C@H](C)[C@@H](OC(=O)CCN2CCN(c3cc4c(cc3F)c(=O)c(C(=O)O)cn4C3CC3)CC2)[C@H](C)[C@@H](O[C@@H]2O[C@H](C)C[C@H](N(C)C)[C@H]2O)[C@](C)(OC)C[C@@H](C)/C(=N\OC)[C@H](C)[C@H]2OC(=O)O[C@@]21C | 1 (≈ 0.971 µM) | 2 (≈ 1.94 µM) | > 256 | 0.25 (≈ 0.243 µM) | > 32 | 4 | > 256 | 1 (≈ 0.971 µM) | – | 64 (≈ 62.1 µM) | 8 | 2 | 256 (≈ 248 µM) | – | 0.5 (≈ 0.485 µM) | 0.25 (≈ 0.243 µM) | 8 (≈ 7.77 µM) | 1 | 2 (≈ 1.94 µM) | >4 |
